Results on 51 molecules are retold here after ChEMBL document CHEMBL4421722, “Inhibitors of protein prenyltransferases” (2013).

Molecules are shown by their SMILES.

The species entered for test [1] is Rattus norvegicus. As to the kind of experiment: Inhibition of rat recombinant geranylgeranyltransferase type I expressed in Escherichia coli assessed as residual enzyme activity for geranylgeranylation of K-Ras4B at 50 uM incubated for 30 mins in presence of [3H]GGPP by scintillation counting assay relative to control.
The species named for test [2] is Rattus norvegicus. As to the kind of experiment: Inhibition of rat recombinant geranylgeranyltransferase type I expressed in Escherichia coli assessed as residual enzyme activity for geranylgeranylation of RhoA at 50 uM incubated for 30 mins in presence of [3H]GGPP by scintillation counting assay relative to control.

Take `Cc1ccc(S(=O)(=O)N2C[C@@H](C(=O)O)[C@H](SCCC(C)C)C[C@H]2c2cccc(Br)c2)cc1`: the Activity in the test filed under Rattus norvegicus [1] is 13.7 to 19.2%; in the test filed under Rattus norvegicus [2], 2.3%.
For `C=CCS[C@H]1[C@@H](C(=O)O)[C@H](c2ccc(Cl)cc2)N(S(=O)(=O)c2ccccc2C)[C@@H]1CCCC` the same measures were 23.1% and 8.4%.
For `Cc1ccc(S(=O)(=O)N2[C@@H](c3cccc(Br)c3)C(C(=O)O)=CC[C@H]2c2ccc(Cl)c(Cl)c2)cc1` the same measures were 8.6 to 24.9% and 3.2%.
Take `Cc1ccc(S(=O)(=O)N2C[C@@H](C(=O)O)[C@H](SCC(C)C)C[C@H]2c2cccc(Br)c2)cc1`: the Activity in the test filed under Rattus norvegicus [1] is 11.4 to 18.8%; in the test filed under Rattus norvegicus [2] it was 1.3%.
On to `Cc1cccc([C@H]2C(C(=O)O)=CC[C@@H](c3ccc(Cl)cc3)N2S(=O)(=O)c2ccccc2C)c1`, for which the Activity was 15.6 to 81.1% in the test listed under Rattus norvegicus [1] and 12.4% in the test listed under Rattus norvegicus [2].
For `Cc1ccc(S(=O)(=O)N2[C@@H](c3cccc(Cl)c3)C(C(=O)O)=CC[C@H]2c2cccc(Cl)c2)cc1` the same measures were 43.7 to 43.8% and 6%.
For `CCCCCC[C@@H]1[C@@H](Sc2ccc(C)cc2)[C@@H](C(=O)O)[C@H](c2ccc(Cl)cc2)N1S(=O)(=O)c1ccccc1` the same measures were 15% and 7.5%.
In the same order, the values of `Cc1ccc(S(=O)(=O)N2C[C@@H](C(=O)O)[C@H](SCc3ccc(Cl)cc3)C[C@H]2c2cccc(Cl)c2)cc1` are 11.9 to 13.5% and 6%.
As for `Cc1ccc(S(=O)(=O)N2[C@@H](c3ccccc3)C(C(=O)O)=CC[C@H]2c2cccc(Br)c2)cc1`, the Activity in the test filed under Rattus norvegicus [1] was 35.2%; in the test listed under Rattus norvegicus [2] it was 19.4%.
In the case of `Cc1ccccc1S(=O)(=O)N1[C@@H](c2cccc(F)c2)C(C(=O)O)=CC[C@H]1c1ccc(Cl)cc1`, the Activity is 5.4 to 13.4% in the test listed under Rattus norvegicus [1] and 3% in the test filed under Rattus norvegicus [2].
In the same order, the values of `Cc1ccc(S(=O)(=O)N2C[C@@H](C(=O)O)[C@H](SCCc3ccccc3)C[C@H]2c2cccc(Br)c2)cc1` are 4.7 to 7.3% and 3.1%.
In the same order, the values of `Cc1ccc(S(=O)(=O)N2[C@H](CC3CCCC3)[C@@H](SCCC(=O)OC(C)(C)C)[C@@H](C(=O)O)[C@@H]2c2ccc(Cl)c(Cl)c2)cc1` are 16.1% and 7.3%.
For `CCCC[C@@H]1[C@@H](Sc2ccc(C)cc2)[C@@H](C(=O)O)[C@H](c2cccc(F)c2)N1S(=O)(=O)c1ccc(C)cc1` the same measures were 31.5% and 7.1%.
With `CCC[C@@H]1[C@@H](SCCC(=O)OC(C)(C)C)[C@@H](C(=O)O)[C@H](c2ccc(Cl)cc2)N1S(=O)(=O)c1ccc(Cl)cc1`, the values for the Activity in the test listed under Rattus norvegicus [1] and in the test filed under Rattus norvegicus [2] were 21.7% and 9.2%, respectively.
For `Cc1ccc(S(=O)(=O)N2[C@@H](c3ccc(Br)cc3)C(C(=O)O)=CC[C@H]2c2ccc(Cl)c(Cl)c2)cc1` the same measures were 18.7 to 22.8% and 11.3%.
In the same order, the values of `CC[C@@H]1[C@@H](SCCC(=O)OC(C)(C)C)[C@@H](C(=O)O)[C@H](c2ccc(Cl)c(Cl)c2)N1S(=O)(=O)c1ccc(C)cc1` are 27.2% and 7.6%.
In the same order, the values of `CCCCS[C@@H]1C[C@@H](c2cccc(Br)c2)N(S(=O)(=O)c2ccc(C)cc2)C[C@H]1C(=O)O` are 5.9 to 9% and -1.5%.
For the molecule `Cc1ccc(S(=O)(=O)N2C[C@@H](C(=O)O)[C@H](SCc3ccccc3)C[C@H]2c2cccc(Cl)c2)cc1`, the Activity is 11.5 to 18.1% in the test filed under Rattus norvegicus [1] and 8.3% in the test listed under Rattus norvegicus [2].
In the same order, the values of `Cc1ccc(S(=O)(=O)N2C[C@@H](C(=O)O)[C@H](Sc3ccccc3)C[C@H]2c2cccc(Cl)c2)cc1` are 87.5% and 8.3%.
`Cc1ccc(S(=O)(=O)N2C(c3ccc(Cl)c(Cl)c3)CC=C(C(=O)O)C2c2cccc(Cl)c2)cc1` (configuration not stated): the Activity in the test listed under Rattus norvegicus [1] was 10.7 to 26%; in the test filed under Rattus norvegicus [2], 4.5%.
For `C=CCS[C@H]1[C@@H](C(=O)O)[C@H](c2ccc(C#N)cc2)N(S(=O)(=O)c2ccc(C)cc2)[C@@H]1CCCCCC` the same measures were 21.5% and 6%.
In the same order, the values of `Cc1ccc([C@@H]2C[C@@H](SCc3ccccc3)[C@H](C(=O)O)CN2S(=O)(=O)c2ccccc2C)cc1` are 32 to 35.6% and 17.5%.
In the same order, the values of `Cc1ccccc1S(=O)(=O)N1[C@H](CC2CCCC2)[C@@H](SCCC(=O)OC(C)(C)C)[C@@H](C(=O)O)[C@@H]1c1ccc(Cl)cc1` are 10% and 7.8%.
For the molecule `Cc1ccc([C@H]2C(C(=O)O)=CC[C@@H](c3ccc(Cl)c(Cl)c3)N2S(=O)(=O)c2ccc(C)cc2)cc1`, the Activity in the test filed under Rattus norvegicus [1] is 12.4 to 17.4%; in the test listed under Rattus norvegicus [2], 15.6%.
For `C=CCS[C@H]1[C@@H](C(=O)O)[C@H](c2ccc(Cl)cc2)N(S(=O)(=O)c2ccccc2C)[C@@H]1CC1CCCC1` the same measures were 22.4% and 4.9%.
For `COc1ccc([C@@H]2C[C@@H](SCc3ccccc3)[C@H](C(=O)O)CN2S(=O)(=O)c2ccc(Cl)cc2)cc1` the same measures were 25.9 to 28.7% and 11.9%.
For `COc1ccc([C@@H]2C[C@@H](Sc3ccccc3)[C@H](C(=O)O)CN2S(=O)(=O)c2ccc(Cl)cc2)cc1` the same measures were 97.2% and 11.9%.
For the molecule `C=CCS[C@H]1[C@@H](C(=O)O)[C@H](c2ccc(Cl)cc2)N(S(=O)(=O)c2ccc(C)cc2)[C@@H]1CC1CCCC1`, the Activity in the test filed under Rattus norvegicus [1] came out at 25.2%; in the test listed under Rattus norvegicus [2], 7.7%.
In the same order, the values of `C=CCS[C@H]1[C@@H](C(=O)O)[C@H](c2ccc(Cl)c(Cl)c2)N(S(=O)(=O)c2ccc(C)cc2)[C@@H]1CCCC` are 21.4% and 9.6%.
For `CCCCS[C@@H]1C[C@@H](c2ccc(C)cc2)N(S(=O)(=O)c2ccccc2C)C[C@H]1C(=O)O` the same measures were 43.5 to 43.7% and 19.8%.
For `Cc1ccc(S(=O)(=O)N2C[C@@H](C(=O)O)[C@H](SCc3ccc(Cl)cc3)C[C@H]2c2cccc(Br)c2)cc1` the same measures were 7.8 to 8% and 3.2%.
As for `COc1ccc([C@@H]2C[C@@H](Sc3ccc(Cl)cc3)[C@H](C(=O)O)CN2S(=O)(=O)c2ccc(Cl)cc2)cc1`, the Activity in the test filed under Rattus norvegicus [1] amounted to 73.2%; in the test listed under Rattus norvegicus [2] it was 8.6%.
For `CCc1ccc([C@@H]2C[C@@H](SCCc3ccccc3)[C@H](C(=O)O)CN2S(=O)(=O)c2ccc(C)cc2)cc1` the same measures were 2.3 to 3% and 2.9%.
In the same order, the values of `COc1ccc([C@@H]2C[C@@H](Sc3ccc(Cl)cc3)[C@H](C(=O)O)CN2S(=O)(=O)c2ccccc2C)cc1` are 72.2% and 17.7%.
In the same order, the values of `CCC[C@@H]1[C@@H](Sc2ccc(C)cc2)[C@@H](C(=O)O)[C@H](c2cccc(F)c2)N1S(=O)(=O)c1ccc(C)cc1` are 14.7% and 4.1%.
As for `Cc1ccc(S(=O)(=O)N2[C@@H](c3cccc(F)c3)C(C(=O)O)=CC[C@H]2c2cccc(Br)c2)cc1`, the values for the Activity in the test listed under Rattus norvegicus [1] and in the test filed under Rattus norvegicus [2] were 17 to 85.6% and 15%, respectively.
In the same order, the values of `COc1ccc([C@@H]2C[C@@H](SCCc3ccccc3)[C@H](C(=O)O)CN2S(=O)(=O)c2ccccc2C)cc1` are 15.2 to 19.5% and 6%.
For `Cc1ccccc1S(=O)(=O)N1C[C@@H](C(=O)O)[C@H](SCCc2ccccc2)C[C@H]1c1ccc(Cl)cc1` the same measures were 11.2 to 12.6% and 4.1%.
As for `Cc1ccc([C@@H]2C[C@@H](SCc3ccc(Cl)cc3)[C@H](C(=O)O)CN2S(=O)(=O)c2ccccc2)cc1`, the Activity in the test filed under Rattus norvegicus [1] was 22 to 29.6%; in the test listed under Rattus norvegicus [2] it was 17.2%.
In the same order, the values of `CC(C)CCS[C@H]1[C@@H](C(=O)O)[C@H](c2ccc(Cl)cc2)N(S(=O)(=O)c2ccccc2)[C@@H]1C(C)C` are 28.1% and 5.9%.
For `COc1ccc([C@@H]2C[C@@H](SCCc3ccccc3)[C@H](C(=O)O)CN2S(=O)(=O)c2ccc(C)cc2)cc1` the same measures were 28.8 to 29.9% and 6.1%.
For `Cc1ccc(S(=O)(=O)N2[C@@H](c3cccc(C)c3)C(C(=O)O)=CC[C@H]2c2cccc(Br)c2)cc1`, the Activity is 16.1 to 31.9% in the test filed under Rattus norvegicus [1] and 14.3% in the test listed under Rattus norvegicus [2].
In the same order, the values of `Cc1ccc(S(=O)(=O)N2C[C@@H](C(=O)O)[C@H](SCc3ccccc3)C[C@H]2c2cccc(Br)c2)cc1` are 5.5 to 7.6% and 2.9%.
Turning to `Cc1ccccc1S(=O)(=O)N1[C@@H](c2ccc(F)cc2)C(C(=O)O)=CC[C@H]1c1ccc(Cl)cc1`, the Activity was 15.6 to 28.8% in the test filed under Rattus norvegicus [1] and 12.6% in the test filed under Rattus norvegicus [2].
For `C=CCS[C@H]1[C@@H](C(=O)O)[C@H](c2ccc(Br)cc2)N(S(=O)(=O)c2ccc(C)cc2)[C@@H]1CCCCCC` the same measures were 15.5% and 5.5%.
In the same order, the values of `Cc1ccc(S(=O)(=O)N2C[C@@H](C(=O)O)[C@H](SCCC(C)C)C[C@H]2c2cccc(Cl)c2)cc1` are 25.1 to 26% and 12%.
As for `Cc1ccc(S(=O)(=O)N2C[C@@H](C(=O)O)[C@H](SCCc3ccccc3)C[C@H]2c2ccc3c(c2)OCO3)cc1`, the Activity was 6.5 to 9.2% in the test filed under Rattus norvegicus [1] and 2% in the test filed under Rattus norvegicus [2].
In the same order, the values of `Cc1ccc([C@@H]2C[C@@H](SCCc3ccccc3)[C@H](C(=O)O)CN2S(=O)(=O)c2ccc(C)cc2)cc1` are 22.6 to 35.4% and 12.4%.
In the case of `Cc1ccc(S(=O)(=O)N2C[C@@H](C(=O)O)[C@H](Sc3ccc(Cl)cc3)C[C@H]2c2ccccc2)cc1`, the values for the Activity in the test filed under Rattus norvegicus [1] and in the test listed under Rattus norvegicus [2] were 64.1% and 14.2%, respectively.
In the same order, the values of `CCC[C@@H]1[C@@H](Sc2ccc(OC)cc2)[C@@H](C(=O)O)[C@H](c2cccc(F)c2)N1S(=O)(=O)c1ccc(C)cc1` are 27.4% and 3.5%.
In the same order, the values of `Cc1ccc([C@@H]2C[C@@H](SCc3ccc(Cl)cc3)[C@H](C(=O)O)CN2S(=O)(=O)c2ccccc2C)cc1` are 19.6 to 20.4% and 10.5%.
